Test [1] deals with ACE-I. The settings on record: pearl garlic peptides; ref Yudho-Sutopo et al. [121]; read-out: ACE-I inhibition IC50; cited from earlier work. From the text:
Yudho-Sutopo et al. reported the ACE-I inhibitory activity of four synthetic peptides from pearl garlic (DHSTAVW, KLAKVF, KLSTAASF, and KETPEAHVF). […] According to Yudho-Sutopo et al., the hydrophobic amino acid in the C-terminal and amino acids with a positively charged side-chain amino group, like in DHSTAVW, are determinants in the inhibition of ACE-I. Furthermore, a study by Zheng et al. reported an ACE-I inhibitory peptide – RGQVIYVL – from Chenopo ...

Test [2] concerns LOX. As to conditions: cited from earlier work; for anti-LOX activity (inhibition): 1 mg/mL, velvet antler blood peptides, ref Ding et al. [119]. From the text:
Ding et al. evaluated eight peptides from velvet antler blood (LFP, FPH, EHF, VGYP, FSAL, LSQKFPK, HHGGEFTPV, and LKECCDKPV) for anti-LOX activity. […] Karas et al. reported six LOX-inhibitory peptides from millet grain (RLARAGLAQ, YGNPVGGVGH, EQGFLPGP ...

In test [3] the test system is angiotensin I converting enzyme. Kind of test: ACE-I inhibitory activity (fluorometric kit CS0002). In kind it is biochemical. As to conditions: 50 µM. The protocol: ACE-I inhibitory assay was determined by ACE-I activity assay kit (fluorometric, CS0002). This assay is based on the hydrolysis of angiotensin I by ACE to yield angiotensin II. Briefly, all reagents were diluted in the assay buffer, and a total of 50 μL of peptide sample, positive control (captopril PHR1307), and assay buffer (blank) were added to a 96-well black plate. The standard was added at 0, 0.1, 0.2, 0.3, 0.4, 0.5, 0.6, and 0.8 nmol and adjusted to a final volume of 100 μL. […] Finally, fluorescence (λex, 320 nm; λem, 405 nm) was measured in five cycles for 5 min. Linear regressions were determined to calculate the enzymatic activity for each sample per concentration. Thus, one unit was defined as the amount of enzyme that releases 1 nmol of fluorescent substrate in 1 min at 37 °C. Finally, the inhibition (%) of each peptide and positive control was determined using regression analysis of the corresponding dose–response curves.

A value given as a limit tells only on which side of the number the result lay.

A word on the IC50: it is the concentration needed to halve the response being measured. Take “KLAKVF [synthetic peptide from pearl garlic, Yudho-Sutopo et al]”: in test [1], the IC50 was 77.2 µM.
As to “VGYP [peptide from velvet antler blood, Ding et al]”, in test [2], the “anti-LOX activity (inhibition)” value was at most 12%.
As to GQLGEHGGAGMG, the LOX inhibition in test [2] (millet grain peptides, ref Karas et al. [120]) is on record as 50%.
As to “KETPEAHVF [synthetic peptide from pearl garlic, Yudho-Sutopo et al]”, the IC50 in test [1] is 455 µM.
Take “LKECCDKPV [peptide from velvet antler blood, Ding et al]”: the “anti-LOX activity (inhibition)” value in test [2] was at most 12%.
Consider “LSQKFPK [peptide from velvet antler blood, Ding et al]”, for which, in test [2], the “anti-LOX activity (inhibition)” value is at most 12%.
Consider `C[C@H](CS)C(=O)N1CCC[C@H]1C(=O)O` [commercial ACE-I inhibitor, reference compound], for which, in test [3], the “ACE-I inhibition, reference inhibitor” value was 80.1%.
Consider “DHSTAVW [synthetic peptide from pearl garlic, Yudho-Sutopo et al]”, for which, in test [1], the IC50 was 2.8 µM.
For “KLSTAASF [synthetic peptide from pearl garlic, Yudho-Sutopo et al]”, the IC50 in test [1] is 172 µM.
As to “HHGGEFTPV [peptide from velvet antler blood, Ding et al]”, the “anti-LOX activity (inhibition)” value in test [2] was at most 12%.

(Values after publication PMC12426930, “Antioxidant, Hypotensive, and Antidiabetic Breakthroughs: Bromelain Hydrolysis Unlocks Quinoa’s Peptide Potential - In Silico and In Vitro Approach” (Journal of Agricultural and Food Chemistry, 2025).)
